How the values were obtained:
B16 melanoma cells = assay: Toxicity / cytotoxicity on B16 melanoma cells; type: cell-based
Procedure: The cytotoxicity of this molecule was tested on B16 melanoma cells; no toxicity could be measured up to concentrations of greater than 100 μM.

[1] = test system: microvessel growth (chick aortic ring); assay: Vascular growth assay on chick embryos (chick aortic ring assay); type: cell-based
Text: The ongoing research will make it possible to specify its effectiveness, compared with thalidomide alone, in blocking tumor development.

fibroblasts = assay: Toxicity on cell cultures of fibroblasts; type: cell-based
[2] = Radioactivity in organs of mice carrying B16 melanomas after IP injection of molecule A; type: in vivo; parameters: Radioactivity measured: unit not given here; details: for Radioactivity measured: 10 μCi/animal
[3] = Radioactivity in mice carrying B16 melanoma after IV injection of iodine 125-labeled molecule B; type: in vivo; parameters: Radioactivity measured: unit not given here; details: for Radioactivity measured: 10 μCi/animal
Water-solubility = type: physicochemical
Text: As has been seen, however, the growth of a cancerous tumor is closely linked to its rate of vascularization and therefore to the phenomenon of angiogenesis that accompanies it. These observations had the scientific community to develop substrates, as has been seen, capable of inhibiting angiogenesis and therefore of blocking, by this means, the development of tumors. It is in fact now commonly accepted that membrane proteins carried by the angiogenic cells, and called integrins, participate actively in the process of proliferation of these cells. More particularly, αVβ3 integrins recognize a specific peptide sequence, the RGD (arginine-glycine-aspartic acid) sequence. The grafting of this unit onto the proposed vector should therefore provide it with an ability to specifically target angiogenic sites and therefore, ultimately, tumor sites. The addition, to this same vector, of an antimitotic agent should allow the selective destruction of the cancerous cells. In this perspective, molecule B was initially prepared to verify the innocuousness of the vector and to determine its specificity. In order to give the targeting agent a greater degree of freedom, said targeting agent was grafted onto the central lysine by means of a […] amino acid, serine. The molecule is water-soluble and is amphiphilic in nature. [drawing 11]

[4] = test system: fibroblasts exhibiting the NARP mutation; type: cell-based
Text: The aim pursued here was to refine and to simplify the structure of these substrates while at the same time conserving their biological activity in order to develop a synthetic process that can be readily adapted to the industrial phase.

## O=C1CCC(N2C(=O)c3ccc(C(=O)NC(Cc4ccc(O)cc4)C(=O)NCCCCC(NC(=O)C(O)[C@H](O)[C@H](O[C@@H]4OC(CO)[C@H](O)[C@H](O)C4O)C(O)CO)C(=O)NCCC(F)(F)C(F)(F)C(F)(F)C(F)(F)C(F)(F)C(F)(F)C(F)(F)C(F)(F)F)cc3C2=O)C(=O)N1 (stereo partly drawn) [molecule A]
B16 melanoma cells; B16 melanomas
  Toxicity on cell cultures: no totally unacceptable toxicity
[1]; at 20 μM
  Inhibiting microvessel growth: effective
[1]; at 200 μM
  Inhibiting microvessel growth: completely blocks the development
fibroblasts
  Toxicity on cell cultures: no totally unacceptable toxicity
[2]; Blood, 15 min after IP injection
  Radioactivity measured: 5.9 ± 1.2
[2]; Blood, 1 h after IP injection
  Radioactivity measured: 3.4 ± 0.7
[2]; Kidney, 15 min after IP injection
  Radioactivity measured: 4.6 ± 0.5
[2]; Kidney, 1 h after IP injection
  Radioactivity measured: 4.0 ± 0.9
[2]; Liver, 15 min after IP injection
  Radioactivity measured: 4.5 ± 1.1
[2]; Liver, 1 h after IP injection
  Radioactivity measured: 2.2 ± 0.8
[2]; Thyroid, 15 min after IP injection
  Radioactivity measured: 5.6 ± 0.8
[2]; Thyroid, 1 h after IP injection
  Radioactivity measured: 9.8 ± 1.7
[2]; Tumor (center), 15 min after IP injection
  Radioactivity measured: 2.6 ± 0.5
[2]; Tumor (center), 1 h after IP injection
  Radioactivity measured: 2.7 ± 0.5
[2]; Tumor (stroma), 15 min after IP injection
  Radioactivity measured: 4.5 ± 0.7
[2]; Tumor (stroma), 1 h after IP injection
  Radioactivity measured: 5.4 ± 0.2
[2]; mice carrying B16 melanomas, IP injection
  Localisation in vivo: concentrated in the stroma of the tumor

## COC(=O)C(CCCCNC(=O)C(Cc1ccc(O)cc1)NC(=O)C(C)(C)C(C)(C)C(F)(F)C(F)(F)C(F)(F)C(F)(F)C(F)(F)C(F)(F)C(F)(F)C(F)(F)F)NCC(CO)NC(=O)C(CC(=O)O)NC(=O)CNC(=O)C(N)CCCNC(=N)N (stereo not drawn) [molecule B]
B16 melanoma cells; B16 melanoma cells
  Cytotoxicity: concentration up to which no toxicity could be measured: greater than 100 μM
[3]; Blood, 15 min after IV injection
  Radioactivity measured: 5.8 ± 0.8
[3]; Blood, 30 min after IV injection
  Radioactivity measured: 4.5 ± 0.8
[3]; Blood, 1 h after IV injection
  Radioactivity measured: 3.6 ± 0.7
[3]; Kidney, 15 min after IV injection
  Radioactivity measured: 8.9 ± 1.6
[3]; Kidney, 30 min after IV injection
  Radioactivity measured: 5.9 ± 0.6
[3]; Kidney, 1 h after IV injection
  Radioactivity measured: 3.5 ± 0.6
[3]; Liver, 15 min after IV injection
  Radioactivity measured: 4.8 ± 0.8
[3]; Liver, 30 min after IV injection
  Radioactivity measured: 2.2 ± 0.6
[3]; Liver, 1 h after IV injection
  Radioactivity measured: 2.4 ± 0.7
[3]; Thyroid, 15 min after IV injection
  Radioactivity measured: 5.9 ± 1.2
[3]; Thyroid, 30 min after IV injection
  Radioactivity measured: 10.2 ± 2.5
[3]; Thyroid, 1 h after IV injection
  Radioactivity measured: 15.3 ± 5.3
[3]; Tumor (center), 15 min after IV injection
  Radioactivity measured: 1.7 ± 0.6
[3]; Tumor (center), 30 min after IV injection
  Radioactivity measured: 1.8 ± 0.3
[3]; Tumor (center), 1 h after IV injection
  Radioactivity measured: 2.4 ± 0.4
[3]; Tumor (stroma), 15 min after IV injection
  Radioactivity measured: 3.9 ± 0.8
[3]; Tumor (stroma), 30 min after IV injection
  Radioactivity measured: 3.8 ± 0.9
[3]; Tumor (stroma), 1 h after IV injection
  Radioactivity measured: 4.2 ± 0.6
[3]; iodine 125-labeled, injected intravenously, mice carrying a melanoma
  Localisation in vivo: accumulates in the stroma of the tumor
Water-solubility
  Water-solubility: water-soluble

## CC(C)(C)/[N+]([O-])=C/c1ccc(C(=O)NCCCCC(NC(=O)C(O)[C@H](O)[C@H](O[C@@H]2OC(CO)[C@H](O)C(O)C2O)C(O)CO)C(=O)NCCC(F)(F)C(F)(F)C(F)(F)C(F)(F)C(F)(F)C(F)(F)C(F)(F)C(F)(F)F)cc1 (stereo partly drawn) [molecule E]
[4]
  Toxicity: No toxicity was measured
[4]; NARP fibroblasts, in vitro
  Cell protection: exhibits a capacity for cell protection
  Effect on the apoptotic process: inhibits the apoptotic process

## O=C1CCC(N2C(=O)c3ccccc3C2=O)C(=O)N1 (stereo not drawn) [thalidomide, reference compound]
[1]; at such concentrations (20 μM, 200 μM)
  Inhibiting microvessel growth: ineffective

Reference: patent publication US20060167223A1, “Novel ampiphilic fluorocarbon molecular vectors for biomedical and medical use” (priority 2002, published 2006)
